Reference: US20080132529A1, “Method of improving bioavailability for non-sedating barbiturates” (priority 2006, published 2008)
“And” between values parts separate entries of the source, which are not always exact repeats. Equal entries are not always repeated.

Columns and labels:
[1] = Phase I food-effect crossover pharmacokinetic study, single 400 mg oral dose of T2000 (DMMDPB), fasting vs fed; details: for Rate and extent of absorption when administered after a high fat, high calorie breakfast: fed vs fasting; for Rate and extent of absorption when administered after a high fat, high calorie breakfast / AUC(0-inf) / Cmax / half-life / Tmax / AUC0-t Ratio (Fasting/Fed) / T1/2 Ratio (Fasting/Fed) / Tmax Ratio (Fasting/Fed) / Cmax Ratio (Fasting/Fed) / AUC0-∞ Ratio (Fasting/Fed): single 400 mg oral dose of DMMDPB; for AUC(0-t) / AUC(0-inf) / Cmax / half-life / Tmax: male, human, plasma, po, 400 mg; for AUC(0-t): AUC0-t, plasma analyte after single 400 mg oral dose of DMMDPB; for AUC(0-t) / Cmax / Tmax / AUC0-t Ratio (Fasting/Fed) / Cmax Ratio (Fasting/Fed): n=23; for AUC(0-t) / AUC(0-inf): least-squares geometric mean; for AUC(0-inf): AUC0-∞; for AUC(0-inf) / half-life / AUC0-∞ Ratio (Fasting/Fed): n=18 for DMMDPB, n=20 for MMMDPB; for half-life / Tmax: arithmetic mean; for AUC0-t Ratio (Fasting/Fed): ratio fasting/fed of geometric means
Procedure: This was a single center, randomized, single dose, open-label, 2-way, food-effect crossover study to compare the rate and extent of absorption of T2000, administered as 4×100 mg capsules (for a total dose of 400 mg), under fasting and fed conditions. Subjects were confined to a clinical research facility from at least 11 hours prior to drug administration until after the 72.0-hour post-dose blood draw, in each period. Single oral doses were separated by a washout period of at least 21 days.
All subjects met the inclusion and exclusion criteria described in the protocol and were judged eligible for the study, based on medical history, demographic data (including sex, age, body weight [kg], height [cm], and BMI [kg/m2], medication history, physical examination, vital signs (blood pressure, respiratory rate, heart rate, and oral temperature), 12-lead ECG, brief neurological examination (including assessment of mental status, orientation, memory, arithmetic and spelling, eye movement, gait and coordination), opthalmology examination (lamp examination; performed within 3 months prior to the first dose), and clinical laboratory tests (hematology, biochemistry, urinalysis, HIV and hepatitis C [HCV] antibodies, and hepatitis B antigen [HBsAg]). […] Screening procedures took place within 28 days prior to Period 1 drug administration.
Subjects abstained from food or drink containing xanthine derivatives or xanthine-related compounds (e.g. coffee, tea, caffeine-containing sodas, colas, chocolate, or decaffeinated products) and energy drinks from 48 hours prior to drug administration, until the end of sample collection in each period; alcohol from 24 hours prior to drug administration, until the end of sample collection in each period, and grapefruit products (e.g. fresh, canned, or frozen); natural food supplements (including garlic as a supplement), and vitamins from 7 days prior to drug administration, until the end of sample collection in each period. Any subjects who felt dizzy or drowsy when they left the clinical facility were advised against performing activities requiring mental alertness, judgment, and physical coordination until they felt safe to do so.
Treatment A: The subjects fasted for at least 10 hours prior to drug administration.
Treatment B: After a supervised overnight fast of at least 10 hours, and 30 minutes before drug administration, subjects were served a standard high-fat, high-caloric breakfast of approximately 1000 calories (approximately 150 calories from protein, 250 calories from carbohydrates, and […]). […] Subjects were required to completely consume this breakfast within 30 minutes, and prior to drug administration. Subjects were dosed on the momrings of Apr. […] Subjects were administered the test or reference medication as a single oral dose of 4 capsules, each containing 100 mg of prodrug T2000 (total dose of 400 mg), with approximately 240 ml of water. Subjects were dosed as specified in the protocol, and subsequently fasted for a period of at least 4 hours. A mouth and hand check was performed to ensure the subjects had swallowed the study medication.
All blood samples were drawn into blood collection tubes (1×7 ml) containing EDTA K3 prior to drug administration and 0.500, 1.00, 2.00, 3.00, 4.00, 5.00, 6.00, 8.00, 10.0, 12.0, 15.0, 18.0, 24.0, 36.0, 48.0, 72.0, 96.0, and 120 hours post-dose in each period. All blood samples were collected via direct venipuncture.
Analysis of T-2000, MMMDPB and DPB were performed using High Performance Liquid Chromatographic Method with Tandem Mass. Spectrometry Detection. The analytical method was developed and validated.

[2] = Early pharmacokinetic studies in dogs, high fat meal vs customary dog food; type: in vivo
[3] = test system: electroshock and chemoconvulsive seizures; details: animal studies; at doses which exhibited no neurological impairment; cited from earlier work
[4] = in vivo; cited from earlier work
[5] = Fed (high-fat breakfast 30 min before dose)

## COCN1C(=O)N(COC)C(=O)C(c2ccccc2)(c2ccccc2)C1=O [DMMDPB, 1,3-dimethoxymethyl-5,5-diphenyl barbituric acid]
[1]
  Rate and extent of absorption when administered after a high fat, high calorie breakfast: increased
  AUC0-t Ratio (Fasting/Fed): 35.6% and 35.57%
  T1/2 Ratio (Fasting/Fed): 141.55%
  Tmax Ratio (Fasting/Fed): 154.34%
  Cmax Ratio (Fasting/Fed): 14.6% and 14.58%
  AUC0-∞ Ratio (Fasting/Fed): 49.46%
[1]; Fasting, healthy subjects
  AUC(0-t): 3100 ng·h/mL
[1]; [5]
  AUC(0-t): 8710 ng·h/mL
[1]; Fasting
  AUC(0-inf): 5320 ng·h/mL
  Cmax: 129 ng/mL
  Tmax: 7.52 h
[1]; Fed
  AUC(0-inf): 10800 ng·h/mL
  Cmax: 887 ng/mL
  Tmax: 4.88 h
[1]; T1/2, Fasting
  half-life: 26.1 h
[1]; T1/2, Fed
  half-life: 18.5 h
[1]; minor, occurred in both fed and fasting conditions, 23 subjects, single 400 mg oral doses
  Adverse events reported (total): 35
[1]; single 400 mg oral dose, fed and fasting, healthy males
  Tolerability: well tolerated
[2]
  Absorption with a high fat meal compared with customary dog food: more completely absorbed
[3]
  Anticonvulsant activity against electroshock and chemoconvulsive seizures: anticonvulsant properties

## O=C1NC(=O)C(c2ccccc2)(c2ccccc2)C(=O)N1 [DPB, 5,5-diphenyl barbituric acid]
[1]
  Rate and extent of absorption when administered after a high fat, high calorie breakfast: increased
  AUC0-t Ratio (Fasting/Fed): 65.3% and 65.28%
  T1/2 Ratio (Fasting/Fed): 111.62%
  Tmax Ratio (Fasting/Fed): 113.50%
  Cmax Ratio (Fasting/Fed): 62.9% and 62.93%
  AUC0-∞ Ratio (Fasting/Fed): 68.04%
[1]; Fasting, healthy subjects
  AUC(0-t): 143000 ng·h/mL
[1]; [5]
  AUC(0-t): 219000 ng·h/mL
[1]; Fasting
  AUC(0-inf): 185000 ng·h/mL
  Cmax: 1750 ng/mL
  Tmax: 54.8 h
[1]; Fed
  AUC(0-inf): 271000 ng·h/mL
  Cmax: 2790 ng/mL
  Tmax: 48.3 h
[1]; T1/2, Fasting
  half-life: 43 h
[1]; T1/2, Fed
  half-life: 38.5 h
[3]
  Anticonvulsant activity against electroshock and chemoconvulsive seizures: anticonvulsant properties

## COCN1C(=O)NC(=O)C(c2ccccc2)(c2ccccc2)C1=O [MMMDPB, monomethoxymethyl-5,5-diphenyl barbituric acid]
[1]
  Rate and extent of absorption when administered after a high fat, high calorie breakfast: increased
  AUC0-t Ratio (Fasting/Fed): 36.6% and 36.56%
  T1/2 Ratio (Fasting/Fed): 165.33%
  Tmax Ratio (Fasting/Fed): 229.02%
  Cmax Ratio (Fasting/Fed): 31.9% and 31.86%
  AUC0-∞ Ratio (Fasting/Fed): 44.86%
[1]; Fasting, healthy subjects
  AUC(0-t): 36400 ng·h/mL
[1]; [5]
  AUC(0-t): 99500 ng·h/mL
[1]; Fasting
  AUC(0-inf): 54000 ng·h/mL
  Cmax: 898 ng/mL
  Tmax: 20.2 h
[1]; Fed
  AUC(0-inf): 120000 ng·h/mL
  Cmax: 2820 ng/mL
  Tmax: 8.83 h
[1]; T1/2, Fasting
  half-life: 26.8 h
[1]; T1/2, Fed
  half-life: 16.2 h

## CCC1(c2ccccc2)C(=O)NC(=O)NC1=O [phenobarbital]
[4]
  Serum and brain levels on administration with food: significantly decreased
